# Entries after “also recorded” stand apart in the source; their conditions may differ.
# Key:
# [1] = test system: mTOR pathway activation (S6 phosphorylation); experiment: S6 phosphorylation (mTOR pathway activation) in neurofibromin 1 deficient astrocytes, phospho-specific antibodies; assay type: cell-based, mouse; details: Nf1-/- astrocytes; concentration not given
# Excerpt: Evidence exists for direct activation of mTOR signaling by Akt as well as indirect activation of mTOR by Akt through the tuberous sclerosis complex (TSC)/Rheb pathway. Studies have shown that the mTOR activation resulting from neurofibromin loss in astrocytes can be reversed by restoring NF1-GAP activity (NF1 GRD), blocking K-RAS activity (K-RASN17), or inhibiting PI-3K activation of Akt.
# [2] = test system: S6 activation; experiment: S6 activation in Tsc1-deficient astrocytes; assay type: cell-based
# Excerpt: FIG. 8 depicts images showing that Rheb pharmacologic inhibition blocks mTOR pathway activation in Tsc1-deficient, but not neurofibromin 1 deficient, astrocytes.
# In each case, the abnormal Tsc1^−/− and neurofibromin 1^−/− astrocyte phenotypes were reversed by mTOR inhibition (rapamycin treatment). […] These studies provide preliminary evidence for a TSC/Rheb-independent mechanism.
smiles,measurement,setting,value
CSCC[C@H](NC(=O)c1ccc(NC[C@@H](N)CS)cc1-c1ccccc1)C(=O)O [FTI-276],S6 activation / phosphorylation (mTOR pathway activation),[1],did not reduce S6 hyperactivation; also recorded: no effect on S6 activity
same,S6 activation,[2],effectively blocks S6 activation; also recorded: reduced S6 activation

# From patent US8101606B2, “Neurofibromin pathway modulators” (Washington University, priority 2007, dated 2012)
